Measurements taken from US8859557B2, “Substituted oxindole derivatives and their use as vasopressin receptor ligands” (Abbott GmbH & Co. KG, priority 2006, dated 2014).

Legend:
[1] = Determination of the microsomal half-life / microsomal clearance (human); assay type: in vitro ADME; conditions: pH 7.4; human liver microsomes, 0.5 μM test substance, 0.25 mg microsomal protein/ml; read-out: Human Mikrosomal Clearance
Experimental: The metabolic stability of a compound can be determined, for example, by incubating a solution of this compound with liver microsomes from particular species (for example rat, dog or human) and determining the half-life of the compound under these conditions (RS Obach, Curr Opin Drug Discov Devel. 2001, 4, 36-44). It is possible to conclude from an observed larger half-life that the metabolic stability of the compound is improved. The stability in the presence of human liver microsomes is of particular interest since it makes it possible to predict the metabolic degradation of the compound in the human liver. Compounds with increased metabolic stability (determined in the liver microsome test) are therefore probably also degraded more slowly in the liver. The slower metabolic degradation in the liver can lead to higher and/or longer-lasting concentrations (effective levels) of the compound in the body, so that the elimination half-life of the compounds according to the invention is increased. Increased and/or longer-lasting effective levels may lead to a better efficacy of the compound in the treatment or prophylaxis of various vasopressin-dependent diseases. An improved metabolic stability may additionally lead to an increased bioavailability after oral administration, because the compound is subjected, after being absorbed in the intestine, to less metabolic degradation in the liver (so-called first pass effect). An increased oral bioavailability may, because the concentration (effective level) of the compound is increased, lead to a better efficacy of the compound after oral administration.
Determination of the Microsomal Half-Life:
The metabolic stability of the compounds of the invention was determined in the following assay.
The test substances are incubated in a concentration of 0.5 μM as follows:
0.5 μM test substance is preincubated together with liver microsomes of various species (rat, human or other species) (0.25 mg of microsomal protein/ml) in 0.05M potassium phosphate buffer pH 7.4 in microtitre plates at 37° C. for 5 min. The reaction is started by adding NADPH (1 mg/ml). 50 μl aliquots are taken after 0, 5, 10, 15, 20 and 30 min, and the reaction is stopped immediately with the same volume of acetonitrile and cooled down. The samples are frozen until analyzed. Using MSMS, the remaining concentration of undegraded test substance is determined. From the […] of the test substance signal/time unit curve, the half-life (T½) is determined, where the half-life of the test substance can be calculated, assuming first order kinetics, from the decrease in the concentration of the compound with time. The microsomal clearance (mCl) is calculated as mCl=In2/T½/(content of microsomal protein in mg/ml)×1000 [ml/min/mg] (modified according to the literature references: Di, The Society for Biomoleculaur Screening, 2003, 453-462; Obach, DMD, 1999 vol 27. N 11, 1350-1359).

[2] = biological target: human vasopressin V1a receptor (Homo sapiens, UniProt P37288); test: Vasopressin V1a receptor binding assay; conditions: selectivity for V1b over V1a, quotient of Ki values
Sequence of human vasopressin V1a receptor (P37288 whole entry): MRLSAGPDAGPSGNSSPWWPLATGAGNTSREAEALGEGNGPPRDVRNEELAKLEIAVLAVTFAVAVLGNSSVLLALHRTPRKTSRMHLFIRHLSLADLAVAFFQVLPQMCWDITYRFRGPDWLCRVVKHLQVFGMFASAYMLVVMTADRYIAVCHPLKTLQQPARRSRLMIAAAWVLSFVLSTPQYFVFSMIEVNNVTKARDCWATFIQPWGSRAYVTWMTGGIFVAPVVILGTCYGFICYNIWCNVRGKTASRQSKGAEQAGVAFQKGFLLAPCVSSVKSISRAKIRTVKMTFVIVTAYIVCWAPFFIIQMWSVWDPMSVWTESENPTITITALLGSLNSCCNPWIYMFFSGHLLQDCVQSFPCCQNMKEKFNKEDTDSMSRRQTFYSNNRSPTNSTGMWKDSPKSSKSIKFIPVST

[3] = biological target: T1, human vasopressin V1b receptor (Homo sapiens, UniProt P47901); test: Vasopressin V1b receptor binding assay; conditions: displacement of 3H-AVP, membranes of CHO-K1 cells with human V1b receptor
T1 construct: expressed in transfected cells; host or cells: CHO-K1 (cell line hV1b-3H2_CHO), membrane preparation
T1 sequence (P47901 1-424): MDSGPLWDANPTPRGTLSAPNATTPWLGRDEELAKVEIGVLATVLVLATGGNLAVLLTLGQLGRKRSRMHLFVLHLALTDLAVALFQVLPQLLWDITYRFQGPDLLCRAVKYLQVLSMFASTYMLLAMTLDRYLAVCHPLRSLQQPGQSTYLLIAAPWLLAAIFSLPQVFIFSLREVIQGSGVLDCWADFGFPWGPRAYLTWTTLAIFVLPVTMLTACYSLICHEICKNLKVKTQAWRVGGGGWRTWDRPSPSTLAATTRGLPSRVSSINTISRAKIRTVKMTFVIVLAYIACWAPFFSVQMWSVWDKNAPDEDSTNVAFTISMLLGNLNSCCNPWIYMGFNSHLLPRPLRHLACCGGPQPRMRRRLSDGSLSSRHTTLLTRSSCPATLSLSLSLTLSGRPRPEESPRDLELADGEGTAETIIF
Experimental: Methods for Determining the Biological Activity Vasopressin V1b Receptor Binding Assay: Substances:
This series of DMSO predilutions was diluted 1:10 with assay buffer. The substance concentration was again diluted 1:5 in the assay mixture (2% DMSO in the mixture).
All determinations were carried out as triplicate determinations.

[4] = biological target: T2, recombinant human oxytocin receptors (Homo sapiens, UniProt P30559); test: Oxytocin receptor binding assay; conditions: selectivity for V1b over oxytocin receptor, quotient of Ki values
T2 construct: expressed in transfected cells; host or cells: HEK-293, transient expression; lysed and homogenized cells
T2 sequence (P30559 1-389): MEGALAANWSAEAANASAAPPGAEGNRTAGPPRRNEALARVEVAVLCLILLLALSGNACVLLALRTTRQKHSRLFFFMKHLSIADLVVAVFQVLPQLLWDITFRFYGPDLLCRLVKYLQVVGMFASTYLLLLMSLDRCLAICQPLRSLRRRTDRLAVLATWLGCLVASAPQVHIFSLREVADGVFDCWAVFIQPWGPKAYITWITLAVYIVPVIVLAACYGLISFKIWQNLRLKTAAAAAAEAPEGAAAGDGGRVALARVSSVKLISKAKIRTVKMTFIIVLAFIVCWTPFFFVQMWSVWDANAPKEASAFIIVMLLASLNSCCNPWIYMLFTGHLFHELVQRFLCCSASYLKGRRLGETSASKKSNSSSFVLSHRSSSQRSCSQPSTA
Experimental: Oxytocin Receptor Binding Assay
Confluent HEK-293 cells with transiently expressing recombinant human oxytocin receptors were centrifuged at 750×g and at room temperature for 5 minutes. The residue was taken up in ice-cold lysis buffer (50 mM Tris-HCl, 10% glycerol, pH 7.4 and Roche Complete Protease Inhibitor) and subjected to an osmotic shock at 4° C. for 20 minutes. The lyzed cells were then centrifuged at 750×g and at 4° C. for 20 minutes, the residue was taken up in incubation buffer, and aliquots of 10^7 cells/ml were prepared. The aliquots were frozen at −80° C. until used.
On the day of the experiment, the cells were thawed, diluted with incubation buffer and homogenized using a Multipette Combitip (Eppendorf, Hamburg). […] The nonspecific binding was determined with 10^−6 M oxytocin (Bachem AG, H2510). Determinations in triplicate were set up. Bound and free radioligand were separated by filtration under vacuum with Whatman GF/B glass fibre filters using a Skatron cell harvester 7000. The bound radioactivity was determined by liquid scintillation measurement in a Tricarb beta counter, model 2000 or 2200CA (Packard).

Structure (SMILES) | microsomal CLint at 0.5 μM [1] [µL/min/mg] | Ki(h-V1a)/Ki(h-V1b) [2] | Ki [3] [nM] | Ki(h-OT)/Ki(h-V1b) [4]
CCOc1ncccc1C1(NC(=O)N2CCN(C3CCN(CC)CC3)CC2)C(=O)N(S(=O)(=O)c2ccc(OC)cc2OC)c2ccc(C#N)cc21.O=C(O)C(F)(F)F (single isomer, unassigned) [Example 7B, (−)-N-[5-Cyano-1-[(2,4-dimethoxyphenyl)sulphonyl]-3-(2-ethoxypyridin-3-yl)-2-oxo-2,3-dihydro-1H-indol-3-yl]-4-(1-ethylpiperidin-4-yl)piperazine-1-carboxamide trifluoroacetate] | < 60 | +++ (>100) | < 10 | +++ (>50)
CCOc1ncccc1C1(NC(=O)N2CCC(N3CCN(C)CC3)CC2)C(=O)N(S(=O)(=O)c2ccc(OC)cc2OC)c2ccc(C#N)cc21 (racemic) [Example 31, N-[5-Cyano-1-[(2,4-dimethoxyphenyl)sulphonyl]-3-(2-ethoxypyridin-3-yl)-2-oxo-2,3-dihydro-1H-indol-3-yl]-4-(4-methylpiperazin-1-yl)piperidine-1-carboxamide] | 60 to 120 | +++ (>100) | < 10 | +++ (>50)
CCOc1ncccc1C1(NC(=O)N2CCC(N3CCN(C)CC3)CC2)C(=O)N(S(=O)(=O)c2ccc(OC)cc2)c2ccc(C#N)cc21.O=C(O)C(F)(F)F (racemic) [Example 35, N-[5-Cyano-3-(2-ethoxypyridin-3-yl)-1-[(4-methoxyphenyl)sulphonyl]-2-oxo-2,3-dihydro-1H-indol-3-yl]-4-(4-methylpiperazin-1-yl)piperidine-1-carboxamide trifluoroacetate] | 60 to 120 | + (15-50) | < 10 | ++ (>25-50)
CCOc1ncccc1[C@]1(NC(=O)N2CCN(C3CCN(C)CC3)CC2)C(=O)N(S(=O)(=O)c2ccc(OC)cc2OC)c2ccc(C#N)cc21 [Example 1B, (−)-N-[5-Cyano-1-[(2,4-dimethoxyphenyl)sulphonyl]-3-(2-ethoxypyridin-3-yl)-2-oxo-2,3-dihydro-1H-indol-3-yl]-4-(1-methylpiperidin-4-yl)piperazine-1-carboxamide] | < 60 | +++ (>100) | < 10 | +++ (>50)
